According to ChEMBL document CHEMBL2094269, “WEHI/Eskitis Trypanosoma b. brucei screening data”:

Experiments:
[1] = DNDI: Cytotoxicity against human MRC-5 lung fibroblast cells.; settings: IC50
[2] = system: Trypanosoma brucei brucei; assay: microbe, parasite or virus in culture; assay type: functional, organism-based, STIB 795
Description: DNDI: Inhibition of Human African Trypanosomiasis (HAT), STIB 795, in vitro

SMILES | IC50 [1] | IC50 ([2]; Trypanosoma brucei, STIB 795) | IC50 [2]
N=c1n(CCc2ccccc2)c2ccccc2n1Cc1ccccc1F | > 20.8 µM | 5.49 µM | 
Oc1c(/N=N/c2ccc3cccc(O)c3n2)ccc2ccccc12 | > 20.8 µM | 3.87 µM | 
CCOC(=O)c1ccc(CCCCCON2C(N)=NC(N)=NC2(C)C)cc1 | > 1.04 µM | 1.05 µM | 
CC1(C)CC(N2COc3c(cc(Cl)c4cccnc34)C2)CC(C)(C)N1 | > 20.8 µM | 5.53 µM | 
COc1ccccc1C(NC(=O)c1ccccc1)c1ccc2cccnc2c1O (stereo not drawn) | > 10.4 µM | 5.68 µM | 
CCCOc1cccc(C(=O)Nc2cccc(-c3nc4ncccc4o3)c2C)c1 | > 4.17 µM | 0.662 µM | 
CC(C)c1ccc(OCc2ccc(C(=O)NCCN(C)C)cc2)cc1 | > 20.8 µM | 5.86 µM | 
CN(CCCNC(=O)c1n[nH]c2c1COc1ccccc1-2)C1CCCCC1 | > 20.8 µM | 5.06 µM | 
COc1ccc(/C(N)=N/OC(=O)c2ccccc2Cl)cc1 | > 20.8 µM | 1.21 µM | 
C/C(=N\NC(=O)Cc1ccc(F)cc1)c1ccccn1 | > 4.17 µM | 5.17 µM | 
N=C(N)N/N=C(\c1ccc(Cl)cc1)c1ccc(Cl)s1 | > 4.17 µM | ≤ 2.46 µM | 
CC1CCC2C(=O)N(c3ccc(Cc4ccncc4)cc3)C(=O)C2C1 (stereo not drawn) | > 41.7 µM | 5.32 µM | 5.4 µM
Cc1cc(Cl)cc(Cl)c1OCCCCCN1CCNCC1 | > 20.8 µM | 2.28 µM | 
CN(C)CCCC1(O)c2ccccc2C2(CC2)c2ccccc21 | > 10.4 µM | 0.436 µM | 
O=c1ccccc2c(/C=C/c3cccc(Cl)c3Cl)nn(-c3ccccc3)c12 | > 10.4 µM | 5.34 µM | 
COc1nccnc1N/N=C/c1cc(Cl)cc(Cl)c1O | > 20.8 µM | 5.19 µM | 
O=S1(=O)Nc2c(ccc3cccnc23)-c2ccccc21 | > 20.8 µM | 2.87 µM | 
CN1/C(=C/c2cccc[n+]2C)Sc2ccccc21 | > 20.8 µM | 0.477 µM | 
O=C(CC(Sc1cccc2cccnc12)c1ccc(F)cc1)c1cccs1 (stereo not drawn) | > 20.8 µM | 0.516 µM | 
Cc1cc(C2=CC(C)(C)NC(C)(C)C2)sc1C1=CC(C)(C)NC(C)(C)C1 | > 41.7 µM | 4.82 µM | 
Cc1c2[nH]c3ccccc3c2c2c([n+]1C)CC(C)(C)CC2 | > 41.7 µM | 8.67 µM | 
CCn1c(Cc2nc3ccccc3n2CC)nc2ccccc21 | > 41.7 µM | 3.87 µM | 
N=C(NOC(=O)CC1CCCCC1)c1cccnc1 | > 41.7 µM | 5.36 µM | 
Cc1nnc(-c2cc(S(=O)(=O)NCc3ccc4c(c3)OCO4)c[nH]2)o1 | > 41.7 µM | 5.42 µM | 

SMILES | IC50 [1] | IC50 ([2]; Trypanosoma brucei, STIB 795) | IC50 [2]
CN1CCN(C2Cc3ccccc3Sc3ccc(N(C)C)cc32)CC1 (stereo not drawn) | > 41.7 µM | 5.04 µM | 
C/C(CC(C)(C)C1CCCCC1)=N/NC(N)N | > 4.17 µM | 1.4 µM | 
CCc1cc(Sc2ccccc2NC(=O)C2CCCCC2)n2nc(C)nc2n1 | > 41.7 µM | 5.22 µM | 
CC(C)(C)C1C/C(=C\c2cccnc2)C(=O)/C(=C/c2cccnc2)C1 (stereo not drawn) | > 4.17 µM | 0.098 µM | 
CC(C)C1CC(CCNCc2ccc(N(C)C)cc2)(c2ccccc2)CCO1 (stereo not drawn) | > 41.7 µM | 5.22 µM | 
CNCc1ccccc1Sc1cccc2ccccc12 | > 41.7 µM | 4.82 µM | 
COc1cc(C(=O)N/N=C(/C)c2ccccc2O)cc(OC)c1OC | > 4.17 µM | 4.45 µM | 
CC1(C)N=C(N)N=C(N)N1OCc1ccc(F)c(-c2ccc(F)cc2)c1 | > 2.08 µM | ≤ 1.45 µM | 
O=C(Nc1ccc(Cl)cc1)O/N=C(/c1ccc(Cl)cc1)N1CCOCC1 | > 41.7 µM | 4.31 µM | 
CCCCC(=O)NC(c1cccs1)c1cc(Cl)c2cccnc2c1O (stereo not drawn) | > 41.7 µM | 0.666 µM | 
C/C(=N\NC(=O)c1ccc(Cl)c(Cl)c1)c1ccccn1 | > 41.7 µM | 5.16 µM | 
CC(=O)Nc1ccc(C)cc1S(=O)(=O)NCCn1c(C)nc2ccccc21 | > 41.7 µM | 4.83 µM | 
Nc1ccc(Nc2coc3ccccc23)cc1 | > 20.8 µM | 3.68 µM | 
CC(O)CN1C(=O)c2ccc3c4c(ccc(c24)C1=O)C(=O)N(CC(C)O)C3=O (stereo not drawn) | > 41.7 µM | 5.05 µM | 
Cc1cc2nc(N/C(N)=N/C(=O)NC3CCCCC3)nc(C)c2cc1C | > 41.7 µM | 5.33 µM | 
COc1ccccc1C/C(N)=N/OC(=O)c1ccc(OC)c(OC)c1 | > 4.17 µM | 0.558 µM | 
CN(C)CCCOC1=Cc2ccccc2Cc2ccccc21 | > 41.7 µM | 6.6 µM | 
CCOC(=O)C1CCCN(Cc2cc(Cl)c3cccnc3c2O)C1 (stereo not drawn) | > 4.17 µM | 5.09 µM | 
CC(C)(C)c1cc(C(c2ccccn2)N2CCOCC2)cc(C(C)(C)C)c1O (stereo not drawn) | > 41.7 µM | 10.6 µM | 
COc1cccc2c(N)c3c(cnn3C)nc12 | > 4.17 µM | 1.21 µM | 
Cc1ccc([N+]2=C3SCCCN3C(O)(c3ccc(Cl)cc3Cl)C2)cc1 (stereo not drawn) | > 4.17 µM | 5.21 µM | 
CC1(C)CC(=O)C/C(=N\NC(=O)c2sc3ccccc3c2Cl)C1 | > 41.7 µM | 2.2 µM | 
O=C(CNc1ccc(Cl)cc1)N/N=C/c1cccnc1 | > 4.17 µM | 1.75 µM | 
COc1ccc2[nH]c(C)c(CCNCc3cn(C)c4ccccc34)c2c1 | > 20.8 µM | 4.74 µM | 

SMILES | IC50 [1] | IC50 ([2]; Trypanosoma brucei, STIB 795) | IC50 [2]
Clc1ccc2nnnc(-c3ccccc3)c2c1 | 4.48 µM | 2.81 µM | 
O=C(N/N=C(\c1ccccc1)c1ccccn1)c1ccccc1Cl | > 4.17 µM | 1.76 µM | 
COc1ccc(CC(C)N)c(Sc2ccccc2)c1 (stereo not drawn) | > 41.7 µM | 5.42 µM | 
CCC1CCCCN1S(=O)(=O)c1ccc(-c2ccno2)cc1OC (stereo not drawn) | > 41.7 µM | 2.73 µM | 
CCOc1cc2c(cc1OCC)C(/C(Cl)=C/c1ccccc1)NCC2 (stereo not drawn) | > 41.7 µM | 5 µM | 
CN(C)c1ccc(/C=C/c2sc3ccc4ccccc4c3[n+]2C)cc1 | > 2.08 µM | < 0.004 µM | 
Cc1nn2c3c(nnc2c1-c1ccccc1)C(=O)CCC3 | 18.1 µM | 0.697 µM | 
Cc1n[nH]c(C)c1/N=N/N1CCOCC1 | 3.61 µM | 0.7 µM | 
COc1cc2nc(NC3CCCc4ccccc43)nc(N)c2cc1OC (stereo not drawn) | > 4.17 µM | 4.75 µM | 
CCOC(=O)c1ccc(NC(=O)C2CCCN(C(=O)c3ccccc3F)C2)cc1 (stereo not drawn) | > 20.8 µM | 56.3 µM | 
c1ccc(Nc2nc(-c3ccccc3)c3ccccn23)cc1 | > 41.7 µM | 5.38 µM | 
CN1/C(=C/C=C/c2ccc3ccccc3[n+]2C)C=Cc2ccccc21 | > 10.4 µM | 0.077 µM | 
Cc1nn2c(=O)cc(-c3ccc(F)cc3)[nH]c2c1-c1ccccc1 | 2.42 µM | 0.913 µM | 
CCc1cccc(-n2nnnc2N2CCN(C(=O)Nc3ccc(F)cc3)CC2)c1 | > 41.7 µM | 4.16 µM | 
O=C(N/N=C/c1ccc(-c2ccccc2Cl)o1)c1ccccc1 | > 41.7 µM | < 0.004 µM | 
O=S(=O)(Nc1ccc(O)c(-c2c(O)ccc3ccccc23)c1)c1cccs1 | > 41.7 µM | 5 µM | 
COc1ccc(-n2nc(N3CCCC(C(=O)NC4CCCC4)C3)ccc2=O)cc1 (stereo not drawn) | > 41.7 µM | 2.28 µM | 
O=C1Nc2ccc(OC(F)(F)F)cc2C1=O | > 41.7 µM | 4.72 µM | 
CN1CCN(c2nc(Nc3ccc(F)cc3)nc(Nc3ccc(F)cc3)n2)CC1 | > 41.7 µM | 5.11 µM | 
COC(=O)c1cn(NC(=O)c2ccccn2)c(=O)c2ccccc12 | > 10.4 µM | 0.63 µM | 
C=CC[n+]1ccc(/C=C/c2ccccc2O)c2ccccc21 | > 41.7 µM | 5.28 µM | 
COc1ccc(/C(N)=N/OC(=O)N2CCOCC2)cc1OC | > 20.8 µM | 2.98 µM | 
NC1=NC(CCc2ccccc2)N(OCCCc2ccccc2)C(N)=N1 (stereo not drawn) | > 4.17 µM | ≤ 2.78 µM | 
Clc1ccc(CCNCc2c[nH]c3ccccc23)c(Cl)c1 | > 20.8 µM | 5.33 µM | 

SMILES | IC50 [1] | IC50 ([2]; Trypanosoma brucei, STIB 795) | IC50 [2]
CCN1/C(=C/c2cccc[n+]2C)C=Cc2cc(C)ccc21 | > 20.8 µM | 0.909 µM | 
COc1cc(C(=O)Nc2nc(-c3ccccn3)cs2)cc(OC)c1OC | > 41.7 µM | 4.6 µM | 
COC(=O)c1ccccc1N/N=C1\C(=N)ON=C1N | > 41.7 µM | 0.41 µM | 
COc1ccc2c(c1)C(=NN=C(N)N)c1cc(OC)ccc1-2 | > 41.7 µM | 4.23 µM | 
CCc1ccccc1Nc1nc(-c2ccc(O)cc2O)cs1 | > 41.7 µM | 3.63 µM | 
OCCNC1CCCc2c1[nH]c1ccc(Br)cc21 (stereo not drawn) | > 20.8 µM | 2.45 µM | 1.83 µM
COc1ccc(C(=O)O/N=C(\N)c2ccc(OC)c(OC)c2)c(OC)c1 | > 41.7 µM | 1.33 µM | 
Cc1ccc(C23CC4CC(CC(NC(=O)NCCN(C)C)(C4)C2)C3)cc1 | > 20.8 µM | 4.01 µM | 
Cc1ccc(Cn2cc(CCC(=O)NCCN3CCCC3)c3ccccc32)cc1 | > 20.8 µM | 3.3 µM | 
CCOC(=O)CNC(=O)C(Cc1ccccc1)NS(=O)(=O)c1cccs1 (stereo not drawn) | > 41.7 µM | 5.51 µM | 
CN(C)CCOc1ccccc1C1NCCc2c1[nH]c1ccccc21 (stereo not drawn) | > 20.8 µM | 1.28 µM | 
Oc1cccnc1NC(c1ccc(Cl)cc1)c1ccc2cccnc2c1O (stereo not drawn) | > 41.7 µM | 4.02 µM | 
COc1ccc(N2C(=O)CN(Cc3ccccc3)C2=S)cc1Cl | > 41.7 µM | 5.49 µM | 
N#C/C(=C\c1cccn1-c1ccc(S(N)(=O)=O)cc1)c1nc2ccccc2[nH]1 | > 41.7 µM | 4.99 µM | 
COc1ccc(C(=O)O/N=C(\N)Cc2ccc(Cl)cc2)c(OC)c1 | > 20.8 µM | 0.104 µM | 
COc1ccccc1C(NC(=O)C1CCCCC1)c1ccc2cccnc2c1O (stereo not drawn) | > 41.7 µM | 10.9 µM | 
O=C(NC(c1ccccc1F)c1ccc2cccnc2c1O)c1ccccc1 (stereo not drawn) | > 4.17 µM | 6.12 µM | 
CC[n+]1c(/C=C/c2ccc(N(C)C)cc2)sc2cc(NC(C)=O)ccc21 | > 20.8 µM | 0.049 µM | 
CC(=O)NC(=S)NNC(=O)c1ccccc1OCc1ccccc1 | > 20.8 µM | 2.88 µM | 
CC[n+]1c(/C=C/c2ccc(N(C)C)cc2)sc2ccc(C(=O)OC)cc21 | > 20.8 µM | 0.131 µM | 
Cc1cccc2c1NC(=O)C2(c1ccc(O)cc1)c1ccc(O)cc1 | > 20.8 µM | 5.72 µM | 
